Experimental data as given in the supplement of paper PMC10307832.

Legend:
Test in all cases: relative viability (nuclei count vs DMSO), 5 days (fraction); higher = more cells survive
[1] = compound: Cc1ccccc1C(C(=O)NC1CCCCC1)N(C(=O)Cn1ccnc1C)c1cccc(F)c1 [IDH-C35] + Cc1cc(Nc2cc(N3CCN(C)CC3)nc(Sc3ccc(NC(=O)C4CC4)cc3)n2)n[nH]1 [Tozasertib] (partner 0.1 µM)
How it was run: (§1)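 Nuclei were stained with Hoechst during a one-step fixation (final 0.05% Triton X-100, 1% formaldehyde, 1 ug/ml Hoechst) carried out 5 days after dosing, then counted on 4× images. The cells, lung cancer lines in 1536-well plates, had been dosed by pin tool the day after seeding with one drug alone or a fixed anchor-drug dose plus five library-drug doses (not always all listed) in √10 steps. Relative viability is the nuclei count in treated wells divided by that in vehicle wells, and each value is the median of duplicate plates.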

[2] = compound: Cc1ccccc1C(C(=O)NC1CCCCC1)N(C(=O)Cn1ccnc1C)c1cccc(F)c1 [IDH-C35] + O=C(c1cc(Cc2n[nH]c(=O)c3ccccc23)ccc1F)N1CCN(C(=O)C2CC2)CC1 [Olaparib] (partner 8 µM)
How it was run: as §1

[3] = compound: Cc1ccccc1C(C(=O)NC1CCCCC1)N(C(=O)Cn1ccnc1C)c1cccc(F)c1 [IDH-C35] + CCNC(=O)c1noc(-c2cc(C(C)C)c(O)cc2O)c1-c1ccc(CN2CCOCC2)cc1 [Luminespib] (partner 0.01 µM)
How it was run: as §1

[4] = compound: CC1=C(C(=NN1)C)CC2=C(C3=C(S2)N(C(=O)N(C3=O)C)CC(C)C)C(=O)N4C[C@@H](CO4)O + O=C(CCCCCCC(=O)Nc1ccccc1)NO [Vorinostat] (partner 1 µM)
How it was run: as §1

Cell Line | relative viability ([1]; first compound 0.08 µM) | relative viability ([1]; first compound 0.253 µM) | relative viability ([1]; first compound 0.8 µM) | relative viability ([1]; first compound 2.53 µM) | relative viability ([1]; first compound 8 µM) | relative viability ([2]; first compound 0.08 µM) | relative viability ([2]; first compound 0.253 µM) | relative viability ([2]; first compound 0.8 µM) | relative viability ([2]; first compound 2.53 µM) | relative viability ([2]; first compound 8 µM) | relative viability ([3]; first compound 0.08 µM) | relative viability ([3]; first compound 0.253 µM) | relative viability ([3]; first compound 0.8 µM) | relative viability ([3]; first compound 2.53 µM) | relative viability ([3]; first compound 8 µM) | relative viability ([4]; first compound 0.0025 µM) | relative viability ([4]; first compound 0.007906 µM) | relative viability ([4]; first compound 0.025 µM) | relative viability ([4]; first compound 0.07906 µM) | relative viability ([4]; first compound 0.25 µM)
NCI-H2009 | 0.69 | 0.72 | 0.728 | 0.735 | 0.692 | 0.679 | 0.74 | 0.613 | 0.655 | 0.669 | 1.08 | 1.01 | 0.999 | 0.921 | 1.01 | 0.703 | 0.785 | 0.735 | 0.756 | 0.701
SW 900 | 0.51 | 0.645 | 0.585 | 0.615 | 0.508 | 0.915 | 0.819 | – | 1.02 | 0.83 | 0.175 | 0.178 | 0.181 | 0.179 | 0.162 | 0.558 | 0.55 | 0.534 | 0.504 | 0.445
NCI-H2405 | 0.735 | 0.776 | 0.758 | 0.716 | 0.689 | 0.85 | 0.858 | 0.825 | 0.98 | 0.884 | 0.755 | 0.63 | 0.614 | 0.706 | 0.64 | 1.13 | 1.07 | 0.849 | 0.96 | 0.888
NCI-H1755 | 0.587 | 0.522 | 0.607 | 0.671 | 0.553 | 0.923 | 0.806 | 0.884 | 0.847 | 0.866 | 0.535 | 0.365 | 0.454 | 0.412 | 0.715 | 0.792 | 0.781 | 0.724 | 0.632 | 0.719
LOU-NH91 | 0.739 | 0.69 | 0.687 | 0.598 | 0.652 | 0.949 | 0.976 | 0.888 | 0.852 | 0.919 | 0.331 | 0.368 | 0.297 | 0.354 | 0.328 | 1.03 | 0.875 | 0.939 | 1.07 | 1
NCI-H3122 | 0.363 | 0.401 | 0.394 | 0.317 | 0.42 | 0.583 | 0.537 | 0.587 | 0.623 | 0.665 | 0.0958 | 0.105 | 0.0707 | 0.106 | 0.0868 | 1.03 | 1.12 | 1.1 | 0.731 | 0.918
HCC-827 | 0.4 | 0.394 | 0.388 | 0.428 | 0.433 | 0.545 | 0.608 | 0.614 | 0.708 | 0.658 | 0.788 | 0.526 | 0.472 | 0.569 | 0.516 | 0.805 | 0.91 | 0.837 | 0.843 | 1.01
SK-LU-1 | 0.359 | 0.347 | 0.364 | 0.341 | 0.341 | 0.422 | 0.399 | 0.396 | 0.484 | 0.448 | 0.219 | 0.207 | 0.188 | 0.225 | 0.259 | 0.744 | 0.528 | 0.571 | 0.611 | 0.611
